Assay results: ChEMBL document CHEMBL5291721, “A preclinical secondary pharmacology resource illuminates target-adverse drug reaction associations of marketed drugs” (Nat Commun, 2023)

Experiments:
[1] = molecular target: T1, Alpha-2A adrenergic receptor (Homo sapiens, UniProt P08913); format: functional, cell-based
T1 sequence (P08913 whole entry): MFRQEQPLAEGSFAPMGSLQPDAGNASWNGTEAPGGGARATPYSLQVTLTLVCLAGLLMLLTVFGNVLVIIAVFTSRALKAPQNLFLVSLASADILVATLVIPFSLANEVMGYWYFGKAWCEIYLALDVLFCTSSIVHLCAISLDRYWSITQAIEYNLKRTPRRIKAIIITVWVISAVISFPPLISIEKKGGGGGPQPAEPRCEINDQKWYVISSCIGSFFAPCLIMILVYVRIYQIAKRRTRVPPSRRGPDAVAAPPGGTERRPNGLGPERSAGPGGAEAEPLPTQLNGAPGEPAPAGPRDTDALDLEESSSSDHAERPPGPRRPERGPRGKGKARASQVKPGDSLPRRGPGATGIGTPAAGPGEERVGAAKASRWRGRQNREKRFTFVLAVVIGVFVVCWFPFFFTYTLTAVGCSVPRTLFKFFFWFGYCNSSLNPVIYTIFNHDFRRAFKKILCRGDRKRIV

B2 bradykinin receptor = molecular target: T2, B2 bradykinin receptor (Homo sapiens, UniProt P30411)
T2 sequence (P30411 whole entry): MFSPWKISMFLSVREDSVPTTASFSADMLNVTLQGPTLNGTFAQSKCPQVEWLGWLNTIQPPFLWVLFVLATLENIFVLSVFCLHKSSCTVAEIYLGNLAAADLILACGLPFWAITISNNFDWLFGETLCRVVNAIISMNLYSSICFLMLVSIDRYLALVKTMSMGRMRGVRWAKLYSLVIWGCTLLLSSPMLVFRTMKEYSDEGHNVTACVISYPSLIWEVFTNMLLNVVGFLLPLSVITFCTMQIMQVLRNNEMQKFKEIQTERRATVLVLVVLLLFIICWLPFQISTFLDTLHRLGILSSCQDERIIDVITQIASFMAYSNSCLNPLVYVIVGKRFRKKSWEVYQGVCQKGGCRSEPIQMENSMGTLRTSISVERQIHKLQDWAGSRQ

[2] = molecular target: T3, Cholecystokinin receptor type A (Homo sapiens, UniProt P32238)
T3 sequence (P32238 whole entry): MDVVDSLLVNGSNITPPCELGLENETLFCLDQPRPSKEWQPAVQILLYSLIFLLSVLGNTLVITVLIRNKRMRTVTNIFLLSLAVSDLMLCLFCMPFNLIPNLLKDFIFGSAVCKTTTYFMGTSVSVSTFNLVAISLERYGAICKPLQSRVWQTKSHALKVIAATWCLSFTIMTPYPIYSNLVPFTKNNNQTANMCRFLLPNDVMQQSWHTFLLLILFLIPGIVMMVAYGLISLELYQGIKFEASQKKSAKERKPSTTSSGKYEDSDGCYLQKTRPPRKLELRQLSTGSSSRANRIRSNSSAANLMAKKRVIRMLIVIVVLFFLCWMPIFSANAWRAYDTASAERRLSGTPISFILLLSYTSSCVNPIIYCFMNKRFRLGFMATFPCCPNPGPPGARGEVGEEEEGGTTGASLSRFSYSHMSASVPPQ

[3] = molecular target: T4, Muscarinic acetylcholine receptor M2 (Homo sapiens, UniProt P08172); format: functional, cell-based
T4 sequence (P08172 whole entry): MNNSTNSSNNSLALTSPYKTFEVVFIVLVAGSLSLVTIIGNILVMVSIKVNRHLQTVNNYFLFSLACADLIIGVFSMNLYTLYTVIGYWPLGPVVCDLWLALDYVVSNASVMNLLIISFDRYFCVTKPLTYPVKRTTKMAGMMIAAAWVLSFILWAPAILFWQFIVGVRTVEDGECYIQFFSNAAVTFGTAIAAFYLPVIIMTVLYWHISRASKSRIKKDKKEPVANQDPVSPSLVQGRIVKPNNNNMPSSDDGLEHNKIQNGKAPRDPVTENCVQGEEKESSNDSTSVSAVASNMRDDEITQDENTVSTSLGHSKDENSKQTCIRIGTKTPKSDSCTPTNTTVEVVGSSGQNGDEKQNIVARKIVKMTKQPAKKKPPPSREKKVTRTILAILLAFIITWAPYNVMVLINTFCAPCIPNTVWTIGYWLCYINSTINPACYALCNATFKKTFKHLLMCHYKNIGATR

[4] = molecular target: T5, 5-hydroxytryptamine receptor 1A (Homo sapiens, UniProt P08908); format: functional, cell-based
T5 sequence (P08908 whole entry): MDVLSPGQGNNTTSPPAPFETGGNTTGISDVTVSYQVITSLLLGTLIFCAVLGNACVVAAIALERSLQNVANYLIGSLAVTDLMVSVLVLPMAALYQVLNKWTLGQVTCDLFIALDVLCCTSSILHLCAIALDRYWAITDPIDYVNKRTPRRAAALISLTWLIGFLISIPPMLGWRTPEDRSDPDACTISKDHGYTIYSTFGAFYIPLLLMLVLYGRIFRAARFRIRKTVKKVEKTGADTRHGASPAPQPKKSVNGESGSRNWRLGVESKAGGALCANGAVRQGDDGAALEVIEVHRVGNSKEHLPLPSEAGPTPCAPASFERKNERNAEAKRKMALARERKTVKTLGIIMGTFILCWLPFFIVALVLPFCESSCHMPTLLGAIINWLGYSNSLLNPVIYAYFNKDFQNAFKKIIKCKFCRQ

[5] = molecular target: Voltage-gated inwardly rectifying potassium channel KCNH2 (Homo sapiens, UniProt Q12809); format: functional
Voltage-gated inwardly rectifying potassium channel KCNH2, sequence (Q12809 whole entry): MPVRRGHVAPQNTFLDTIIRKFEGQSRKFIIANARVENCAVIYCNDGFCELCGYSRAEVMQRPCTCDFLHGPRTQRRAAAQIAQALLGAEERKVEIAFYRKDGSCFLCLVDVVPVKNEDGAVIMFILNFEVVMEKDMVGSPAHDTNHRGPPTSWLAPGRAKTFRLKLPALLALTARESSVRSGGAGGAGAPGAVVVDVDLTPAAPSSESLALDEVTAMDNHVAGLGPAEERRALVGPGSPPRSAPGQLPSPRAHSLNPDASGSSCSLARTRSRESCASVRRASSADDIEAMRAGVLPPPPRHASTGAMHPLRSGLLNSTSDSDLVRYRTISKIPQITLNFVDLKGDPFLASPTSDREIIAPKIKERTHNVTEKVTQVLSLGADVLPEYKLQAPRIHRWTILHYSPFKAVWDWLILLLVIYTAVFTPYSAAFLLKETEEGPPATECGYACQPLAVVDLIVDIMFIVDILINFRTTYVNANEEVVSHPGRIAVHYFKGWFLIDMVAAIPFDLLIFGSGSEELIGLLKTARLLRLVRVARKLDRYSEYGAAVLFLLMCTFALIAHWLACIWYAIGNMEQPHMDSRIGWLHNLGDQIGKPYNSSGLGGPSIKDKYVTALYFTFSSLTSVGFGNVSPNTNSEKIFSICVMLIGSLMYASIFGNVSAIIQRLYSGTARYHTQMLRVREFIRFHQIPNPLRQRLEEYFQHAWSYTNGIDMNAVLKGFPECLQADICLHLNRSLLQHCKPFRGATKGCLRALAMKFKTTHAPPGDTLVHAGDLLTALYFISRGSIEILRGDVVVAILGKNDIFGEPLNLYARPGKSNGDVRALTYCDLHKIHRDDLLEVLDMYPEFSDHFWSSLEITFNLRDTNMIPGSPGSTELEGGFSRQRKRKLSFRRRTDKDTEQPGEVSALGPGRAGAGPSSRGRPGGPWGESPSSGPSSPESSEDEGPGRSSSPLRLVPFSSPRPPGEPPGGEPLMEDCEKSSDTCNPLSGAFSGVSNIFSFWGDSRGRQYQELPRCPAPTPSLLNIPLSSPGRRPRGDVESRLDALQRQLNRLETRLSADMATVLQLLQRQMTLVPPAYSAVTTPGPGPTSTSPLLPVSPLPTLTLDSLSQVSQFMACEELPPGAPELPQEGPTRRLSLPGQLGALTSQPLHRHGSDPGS

D(3) dopamine receptor = D(3) dopamine receptor (Homo sapiens, UniProt P35462)
D(3) dopamine receptor, sequence (P35462 whole entry): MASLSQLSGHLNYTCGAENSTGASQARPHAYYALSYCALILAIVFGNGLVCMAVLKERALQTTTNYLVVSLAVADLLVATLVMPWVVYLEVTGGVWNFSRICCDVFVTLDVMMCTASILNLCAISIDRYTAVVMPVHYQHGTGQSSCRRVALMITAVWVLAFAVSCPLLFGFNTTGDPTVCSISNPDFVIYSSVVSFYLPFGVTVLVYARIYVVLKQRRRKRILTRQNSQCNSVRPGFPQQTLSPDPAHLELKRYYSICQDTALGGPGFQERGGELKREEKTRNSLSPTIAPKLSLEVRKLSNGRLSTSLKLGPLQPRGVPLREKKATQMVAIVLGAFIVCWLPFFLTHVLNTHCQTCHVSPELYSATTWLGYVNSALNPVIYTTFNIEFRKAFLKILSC
Note: assay procedure not described here.

Row | Structure (SMILES) | AC50 [1] | AC50 (B2 bradykinin receptor) | AC50 [2] | AC50 [3] | AC50 [4] | AC50 [5] | AC50 (D(3) dopamine receptor)
1 | Cc1noc(NS(=O)(=O)c2ccc(N)cc2)c1C [SULFISOXAZOLE] | > 10 µM | > 10 µM | > 10 µM | > 10 µM | > 10 µM | > 30 µM | > 30 µM
2 | CCCCC1C(=O)N(c2ccccc2)N(c2ccccc2)C1=O [PHENYLBUTAZONE] | > 10 µM | > 30 µM | > 30 µM | > 10 µM | > 10 µM | > 30 µM | > 30 µM
3 | C[C@H](Cc1ccc(O)c(O)c1)[C@@H](C)Cc1ccc(O)c(O)c1 [MASOPROCOL] | > 10 µM | > 10 µM | > 10 µM | > 30 µM | > 10 µM | > 30 µM | 1.8 µM
4 | Cc1cc(C(C)(C)C)cc(C)c1CC1=NCCN1 [XYLOMETAZOLINE] | > 30 µM | > 30 µM | > 30 µM | > 30 µM | 0.0178 µM | 5.2 µM | 3.87 µM
5 | CC1OC2(CS1)CN1CCC2CC1 (stereo not given) [CEVIMELINE] | > 10 µM | > 10 µM | > 10 µM | 3.03 µM | > 10 µM | > 30 µM | > 30 µM
6 | C#C[C@]1(OC(C)=O)CC[C@H]2[C@@H]3CCC4=C/C(=N/O)CC[C@@H]4[C@H]3CC[C@@]21CC [NORGESTIMATE] | > 30 µM | > 30 µM | > 30 µM | > 30 µM | > 30 µM | > 30 µM | 29 µM
7 | OC1(c2ccc(Cl)cc2)c2ccccc2C2=NCCN21 (stereo not given) [MAZINDOL] | > 30 µM | > 30 µM | > 30 µM | > 30 µM | > 30 µM | > 30 µM | > 30 µM
8 | CCOC(=O)c1cncn1[C@H](C)c1ccccc1 [ETOMIDATE] | > 10 µM | > 10 µM | > 10 µM | > 10 µM | > 10 µM | > 30 µM | > 30 µM
9 | Cc1cc2cc3c(C)cc(=O)oc3c(C)c2o1 [TRIOXSALEN] | > 10 µM | > 10 µM | > 10 µM | > 10 µM | > 10 µM | > 30 µM | > 30 µM
10 | Oc1ccc2c(c1)CC[C@H](c1ccccc1)[C@@H]2c1ccc(OCCN2CCCC2)cc1 [LASOFOXIFENE] | 10 µM | > 30 µM | > 3 µM | 15 µM | > 30 µM | 0.73 µM | 2.2 µM
11 | Clc1ccc2c(N3CCN(CCCN4CCN(c5ccnc6cc(Cl)ccc56)CC4)CC3)ccnc2c1 [PIPERAQUINE] | > 30 µM | > 30 µM | > 30 µM | > 30 µM | > 30 µM | 2.56 µM | 9 µM
12 | CCCC(CCC)C(N)=O [VALPROMIDE] | > 10 µM | > 30 µM | > 30 µM | > 10 µM | > 30 µM | > 30 µM | > 30 µM
13 | CC(C(=O)O)c1ccc(CC2CCCC2=O)cc1 (stereo not given) [LOXOPROFEN] | > 30 µM | > 30 µM | > 30 µM | > 30 µM | > 30 µM | > 30 µM | > 30 µM
14 | CC(=O)N[C@@H](CS)C(=O)O [ACETYLCYSTEINE] | > 30 µM | > 30 µM | > 30 µM | > 30 µM | > 30 µM | > 30 µM | > 30 µM
15 | CCCCC(=O)O[C@]1(C(=O)CO)[C@@H](C)C[C@H]2[C@@H]3CCC4=CC(=O)C=C[C@]4(C)[C@@]3(F)[C@@H](O)C[C@@]21C [BETAMETHASONE VALERATE] | > 10 µM | > 30 µM | > 30 µM | > 10 µM | > 30 µM | > 30 µM | > 30 µM
16 | C[C@]12CC[C@@H]3c4ccc(O)cc4C[C@@H](CCCCCCCCC[S+]([O-])CCCC(F)(F)C(F)(F)F)[C@H]3[C@@H]1CC[C@@H]2O (stereo not given in full) [FULVESTRANT] | > 30 µM | > 30 µM | > 30 µM | > 30 µM | > 30 µM | > 30 µM | > 30 µM
17 | CC(CCc1ccc(O)cc1)NCCc1ccc(O)c(O)c1 (stereo not given) [DOBUTAMINE] | > 30 µM | > 30 µM | > 30 µM | > 30 µM | > 30 µM | 20.3 µM | 0.728 µM
18 | Cc1cccc(N2CC(CO)OC2=O)c1 (stereo not given) [TOLOXATONE] | > 30 µM | > 30 µM | > 30 µM | > 30 µM | > 30 µM | > 30 µM | > 30 µM
19 | COCC1=C(C(=O)O)N2C(=O)[C@@H](NC(=O)/C(=N\OC)c3csc(N)n3)[C@H]2SC1 [CEFPODOXIME] | > 30 µM | > 30 µM | > 30 µM | > 30 µM | > 30 µM | > 30 µM | > 30 µM
20 | CN(C)CCCNc1c2ccccc2nc2cccc([N+](=O)[O-])c12 [NITRACRINE] | > 30 µM | > 30 µM | > 30 µM | > 30 µM | > 30 µM | 0.46 µM | 9.8 µM
21 | CN1CCC(=C2c3ccccc3CCc3cccnc32)CC1 [AZATADINE] | > 10 µM | > 30 µM | > 30 µM | > 10 µM | > 30 µM | 24.6 µM | > 10 µM
22 | CC(C)[C@H](N)C(=O)OCC(CO)OCn1cnc2c(=O)nc(N)[nH]c21 (stereo not given in full) [VALGANCICLOVIR] | > 30 µM | > 30 µM | > 30 µM | > 30 µM | > 30 µM | > 30 µM | > 30 µM
23 | C=CCNc1nc(NCC=C)nc(N2CCN(C(c3ccc(F)cc3)c3ccc(F)cc3)CC2)n1 [ALMITRINE] | > 30 µM | > 30 µM | > 30 µM | > 30 µM | > 30 µM | > 30 µM | > 30 µM
24 | CCC(=O)O[C@H]1CC[C@H]2[C@@H]3CCC4=CC(=O)CC[C@]4(C)[C@H]3CC[C@]12C [TESTOSTERONE PROPIONATE] | > 10 µM | > 10 µM | > 10 µM | > 10 µM | > 10 µM | > 30 µM | > 30 µM
25 | CC(N)C(O)c1ccccc1 (stereo not given) [PHENYLPROPANOLAMINE] | > 10 µM | > 30 µM | > 30 µM | > 10 µM | > 10 µM | > 30 µM | > 10 µM
